Measured values reported in patent US10675352B2 (CENTROSE, LLC, priority 2014, dated 2020).
Read-outs that look alike come from different tables or passages of the source.

Assays:
Ramos [1] = assay: cells; details: Homo sapiens, 72 h, read-out: EC50 in picoM, Ramos
SU-DHL-8 cells [2] = details: agents and agent-linker intermediates; value in parentheses; 3 days incubation
SU-DHL-8 cells [3] = assay: cells; details: Homo sapiens, SU-DHL-8, 72 h, read-out: EC50 in picoM, SUDHL8
Ramos [4] = tested on: Ramos
[5] = tested on: HL60, U937, MV411, Hut78, H929, and RAMOS; assay: In vitro cytotoxic activity on six human blood cancer cell types, overall statements; format: cell-based; details: all cell lines tested except RAMOS
Method: Agent loading was determined to be about 4.

Row | Compound | EC50 (Ramos [1]) | % viab., SUDHL8 (SU-DHL-8 cells [2]) | EC50 (SU-DHL-8 cells [3]) | % viab., Ramos (Ramos [4]; human, 3 days) | % viab., Ramos (Ramos [4]; agents and agent-linker intermediates, value in parentheses, 3 days incubation) | effect of ATRA alone on cell growth [5]
1 | C[C@]12CCC(OC[C@@H]3OC[C@H](N)C(O)C3O)C=C1CCC1C2CC[C@]2(C)[C@@H](c3ccc(=O)oc3)CC[C@]12O (some centres unmarked) [CEN09-106] | 1.9 nM | 0% | 2.07 nM |  |  | 
2 | C[C@]12CC[C@H](OC[C@@H]3OC[C@H](N)C(O)C3O)CC1CCC1C2CC[C@]2(C)[C@@H](C3=CC(=O)OC3)CC[C@]12O (some centres unmarked) [CEN-319] | 5.8 nM |  | 8.4 nM | 0% |  | 
3 | C[C@]12CC[C@H](OC(=O)NCCCN3CCN(CCCN)CC3)CC1CCC1C2CC[C@]2(C)[C@@H](c3ccc(=O)oc3)CC[C@]12O (some centres unmarked) [CEN-371] | 7.81 nM | 0% | 11 nM |  | 0% | 
4 | C[C@]12CC[C@H](OC(=O)NCCCN3CCN(CCCN)CC3)C[C@H]1CC[C@@H]1[C@@H]2CC[C@]2(C)[C@@H](C3=CC(=O)OC3)CC[C@]12O | > 50 nM |  | > 50 nM |  |  | 
5 | C[C@]12CC[C@H](O)C[C@H]1CC[C@@H]1[C@@H]2CC[C@]2(C)[C@@H](c3ccc(=O)oc3)CC[C@]12O [Bufalin, reference compound] | 7.3 nM |  | 16 nM |  |  | 
6 | C[C@]12CC[C@H](O)C=C1CC[C@@H]1[C@@H]2CC[C@]2(C)[C@@H](c3ccc(=O)oc3)CC[C@]12O [Scillarenin, reference compound] | 17 nM |  | 18 nM |  |  | 
7 | CC1=C(/C=C/C(C)=C/C=C/C(C)=C/C(=O)O)C(C)(C)CCC1 [ATRA, all-trans-retinoic acid] |  |  |  |  |  | slowed cell growth
8 | CN(CCCN)CCCNC(=O)O[C@H]1CC[C@@]2(C)C(CCC3C2CC[C@]2(C)C(c4ccc(=O)oc4)CC[C@]32O)C1 (stereo in doubt) [CEN-372, 5-[(1S,2S,5S,7R,10R,11S,14S,15R)-5-{3-[N-Methyl(3-aminopropyl)amino]propylaminocarbonyloxy}-11-hydroxy-2,15-dimethyltetracyclo[8.7.0.02,7.011,15]heptadec-14-yl]-2-pyranone] | 3.6 nM |  | 4.4 nM |  |  | 
9 | C[C@]12CC[C@H](O)C[C@H]1CC[C@@H]1[C@@H]2CC[C@]2(C)[C@@H](C3=CC(=O)OC3)CC[C@]12O [Digitoxigenin, reference compound] | > 50 nM |  | > 50 nM |  |  | 
10 | C[C@]12CC[C@H](OC(=O)NCCCNCCCN)CC1CCC1C2CC[C@]2(C)C(c3ccc(=O)oc3)CC[C@]12O (stereo in doubt) [CEN-373, 5-{(1S,2S,5S,7R,10R,11S,14S,15R)-5-[3-(3-Aminopropylamino)propylaminocarbonyloxy]-11-hydroxy-2,15-dimethyltetracyclo[8.7.0.02,7.011,15]heptadec-14-yl}-2-pyranone] | 4 nM |  | 5.9 nM |  |  | 
